Calls of active or inactive are those of the source. The rule behind the calls is not given here.
Tests used:
Dipeptidyl peptidase 4 [1] = target: T1, Dipeptidyl peptidase 4 (Homo sapiens, UniProt P27487); assay: Inhibition of DPP4 at 10 uM assessed as […] release after 1 hr relative to control
Target sequence in this assay (P27487 whole entry, looked up): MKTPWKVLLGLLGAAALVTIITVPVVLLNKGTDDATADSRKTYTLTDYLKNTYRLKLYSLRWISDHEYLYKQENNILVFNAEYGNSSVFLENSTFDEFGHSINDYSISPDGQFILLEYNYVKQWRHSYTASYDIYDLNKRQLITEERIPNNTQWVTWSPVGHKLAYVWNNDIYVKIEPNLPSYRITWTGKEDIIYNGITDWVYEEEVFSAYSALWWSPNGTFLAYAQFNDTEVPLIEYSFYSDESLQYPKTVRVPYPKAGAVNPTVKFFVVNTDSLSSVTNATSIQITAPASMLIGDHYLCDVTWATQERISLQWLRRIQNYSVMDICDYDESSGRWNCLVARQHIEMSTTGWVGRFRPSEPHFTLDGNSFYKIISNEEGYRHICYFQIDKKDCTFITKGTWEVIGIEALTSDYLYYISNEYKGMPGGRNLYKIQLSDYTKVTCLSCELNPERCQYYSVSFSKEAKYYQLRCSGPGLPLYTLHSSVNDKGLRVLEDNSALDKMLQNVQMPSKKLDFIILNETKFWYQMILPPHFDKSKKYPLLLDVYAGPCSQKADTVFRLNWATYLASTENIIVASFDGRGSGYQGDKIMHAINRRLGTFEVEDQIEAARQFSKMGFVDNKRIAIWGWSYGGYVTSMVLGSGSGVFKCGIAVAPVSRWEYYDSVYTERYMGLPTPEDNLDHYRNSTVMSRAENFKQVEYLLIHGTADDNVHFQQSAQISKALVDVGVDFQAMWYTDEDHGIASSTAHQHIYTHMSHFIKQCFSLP

Dipeptidyl peptidase 4 [2] = target: T1, Dipeptidyl peptidase 4; assay: Inhibition of DPP4 assessed as […] release after 1 hr
[3] = Selectivity ratio of IC50 for DPP4 over IC50 for DPP8
Dipeptidyl peptidase 8 = Dipeptidyl peptidase 8 (Homo sapiens, UniProt Q6V1X1); assay: Inhibition of DPP8 assessed as […] release after 1 hr
Dipeptidyl peptidase 8, sequence (Q6V1X1 whole entry): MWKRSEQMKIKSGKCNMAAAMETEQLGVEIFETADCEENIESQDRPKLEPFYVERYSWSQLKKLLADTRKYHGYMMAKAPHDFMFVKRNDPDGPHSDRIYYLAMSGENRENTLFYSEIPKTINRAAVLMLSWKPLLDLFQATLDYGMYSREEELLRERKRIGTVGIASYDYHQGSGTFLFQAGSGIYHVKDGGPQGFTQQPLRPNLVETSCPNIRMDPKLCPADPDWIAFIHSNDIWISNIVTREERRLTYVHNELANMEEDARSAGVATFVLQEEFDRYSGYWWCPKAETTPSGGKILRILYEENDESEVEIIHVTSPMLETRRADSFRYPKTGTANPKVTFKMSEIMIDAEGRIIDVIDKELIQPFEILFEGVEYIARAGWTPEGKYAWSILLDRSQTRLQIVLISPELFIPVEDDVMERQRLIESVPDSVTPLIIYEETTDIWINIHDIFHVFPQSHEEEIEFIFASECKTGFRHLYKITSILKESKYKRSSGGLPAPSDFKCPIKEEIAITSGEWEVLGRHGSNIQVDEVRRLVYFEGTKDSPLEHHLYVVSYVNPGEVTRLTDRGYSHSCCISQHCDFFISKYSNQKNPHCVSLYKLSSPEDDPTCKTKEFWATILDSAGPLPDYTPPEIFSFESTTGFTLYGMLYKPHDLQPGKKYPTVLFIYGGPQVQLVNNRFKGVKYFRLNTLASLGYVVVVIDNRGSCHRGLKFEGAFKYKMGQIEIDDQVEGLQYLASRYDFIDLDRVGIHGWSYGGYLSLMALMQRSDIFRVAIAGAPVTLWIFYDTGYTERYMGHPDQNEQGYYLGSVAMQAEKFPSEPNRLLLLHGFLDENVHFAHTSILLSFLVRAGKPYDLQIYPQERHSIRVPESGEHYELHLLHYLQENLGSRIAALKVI

inhibition (Dipeptidyl peptidase 4 [1]) [%]	Structure (SMILES)	also measured
7	O=C1c2c(Cl)c(Cl)c(Cl)c(Cl)c2C(=O)N1c1ccccc1CCc1ccccc1	
20	O=C1c2c(Cl)c(Cl)c(Cl)c(Cl)c2C(=O)N1c1cccc(CCc2ccc(F)cc2)c1	
26	O=C1c2c(Cl)c(Cl)c(Cl)c(Cl)c2C(=O)N1c1cccc(CCc2ccccc2)c1	
12	O=C1c2c(Cl)c(Cl)c(Cl)c(Cl)c2C(=O)N1c1ccc(CCc2ccccc2)cc1	
0	O=C1c2ccccc2C(=O)N1c1ccccc1CCc1ccccc1	
0	COc1ccc(CCc2ccccc2N2C(=O)c3ccccc3C2=O)cc1OC	
4	O=C1c2ccccc2C(=O)N1c1ccccc1CCc1ccc(O)c(O)c1	
7	O=C1c2ccccc2C(=O)N1c1cccc(CCc2ccc(O)c(O)c2)c1	
6	O=C1c2ccccc2C(=O)N1c1ccc(CCc2ccccc2)cc1	
86	O=C1c2c(Cl)c(Cl)c(Cl)c(Cl)c2C(=O)N1c1cccc(CCc2ccccc2C(F)(F)F)c1	IC50 (Dipeptidyl peptidase 4 [2]): 4 µM; inhibition (Dipeptidyl peptidase 4 [2]): Active
0	COc1ccc(CCc2cccc(N3C(=O)c4ccccc4C3=O)c2)cc1OC	
2	O=C1c2ccccc2C(=O)N1c1cccc(CCc2ccccc2)c1	
87	O=C1c2c(Cl)c(Cl)c(Cl)c(Cl)c2C(=O)N1c1cccc(CCc2cccc(C(F)(F)F)c2)c1	Ratio IC50 [3]: 10; IC50 (Dipeptidyl peptidase 4 [2]): 3.1 µM; inhibition (Dipeptidyl peptidase 4 [2]): Active; IC50 (Dipeptidyl peptidase 8): > 30 µM
7	O=C1c2ccccc2C(=O)N1c1ccc(CCc2ccc(O)c(O)c2)cc1	
2	COc1ccc(CCc2ccccc2N2C(=O)c3c(Cl)c(Cl)c(Cl)c(Cl)c3C2=O)cc1OC	
19	O=C1c2c(Cl)c(Cl)c(Cl)c(Cl)c2C(=O)N1c1cccc(CCc2c(F)c(F)c(F)c(F)c2F)c1	
3	COc1ccc(CCc2ccc(N3C(=O)c4c(Cl)c(Cl)c(Cl)c(Cl)c4C3=O)cc2)cc1OC	
5	O=C1c2c(Cl)c(Cl)c(Cl)c(Cl)c2C(=O)N1c1cccc(CCc2ccc(O)c(O)c2)c1	
12	O=C1c2c(Cl)c(Cl)c(Cl)c(Cl)c2C(=O)N1c1ccccc1CCc1ccc(O)c(O)c1	
0	COc1ccc(CCc2cccc(N3C(=O)c4c(Cl)c(Cl)c(Cl)c(Cl)c4C3=O)c2)cc1OC	
11	O=C1c2c(Cl)c(Cl)c(Cl)c(Cl)c2C(=O)N1c1ccc(CCc2ccc(O)c(O)c2)cc1	
0	COc1ccc(CCc2ccc(N3C(=O)c4ccccc4C3=O)cc2)cc1OC	
25	Cc1ccc(CCc2cccc(N3C(=O)c4c(Cl)c(Cl)c(Cl)c(Cl)c4C3=O)c2)cc1	
38	O=C1c2c(Cl)c(Cl)c(Cl)c(Cl)c2C(=O)N1c1cccc(CCc2ccc(C(F)(F)F)cc2)c1	

From ChEMBL document CHEMBL1770097, “Non-competitive and selective dipeptidyl peptidase IV inhibitors with phenethylphenylphthalimide skeleton derived from thalidomide-related α-glucosidase inhibitors and liver X receptor antagonists” (Bioorg Med Chem Lett, 2011)
